Results on 16 molecules are retold here after US8314112B2 (Novartis AG, priority 2008, dated 2012).

The target of the test is T1, human ALK5 (kinase domain, ALK5 T204D) (Homo sapiens, UniProt P36897, T204D).
T1 construct: The kinase domain of human ALK5 (amino acids 200-503); made in house; host or cells: insect cells (baculovirus)
T1 sequence (P36897 200-503 T204D): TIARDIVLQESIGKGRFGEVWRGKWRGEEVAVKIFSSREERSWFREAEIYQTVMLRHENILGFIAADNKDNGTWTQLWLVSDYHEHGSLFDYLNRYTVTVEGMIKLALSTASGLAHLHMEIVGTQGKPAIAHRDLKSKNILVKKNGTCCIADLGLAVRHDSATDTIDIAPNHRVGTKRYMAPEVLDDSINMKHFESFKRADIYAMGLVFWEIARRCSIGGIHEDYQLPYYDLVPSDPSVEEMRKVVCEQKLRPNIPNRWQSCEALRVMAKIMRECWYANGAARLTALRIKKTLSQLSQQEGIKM
Description: ALK5 kinase assay ([33P] phosphate incorporation into casein). The test is classed as biochemical. The settings on record: casein substrate, 1 μM unlabelled ATP. In short, it runs like this: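 His-tagged human ALK5 T204D kinase domain (aa 200-503, constitutively active, baculovirus/insect-cell expressed), 50 ng/well, preincubated 10 min with compound and dephosphorylated casein (200 μg/well) in Tris pH 7.4/MgCl2/MnCl2. Reaction started with 1 μM ATP plus [33P]ATP, 50 min at room temperature, EDTA-stopped; casein-bound 33P counted by scintillation after filter capture.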
In turn, `CNCc1cccc(-c2cncc(-c3cc(-c4cccc(C)n4)nc4[nH]ccc34)c2)c1` [Example 68, Methyl-(3-{5-[6-(6-methyl-pyridin-2-yl)-1H-pyrrolo[2,3-b]pyridin-4-yl]-pyridin-3-yl}-benzyl)-amine] showed an IC50 of less than 32 nM.
For `Cc1cccc(-c2nc(-c3cncc(-c4ccc(CN5CCOCC5)cc4)c3)c3cc[nH]c3n2)n1` [Example 69, 2-(6-Methyl-pyridin-2-yl)-4-[5-(4-morpholin-4-ylmethyl-phenyl)-pyridin-3-yl]-7H-pyrrolo[2,3-d]pyrimidine] the value was less than 64 nM; for `Cc1cccc(-c2nc(-c3cncc(-c4ccc(CO)cc4)c3)c3cc[nH]c3n2)n1` [Example 70], 13 nM.
For `Cc1cccc(-c2nc(-c3cncc(C4=CCCCC4)c3)c3cc[nH]c3n2)n1` [Example 72, 4-(5-Cyclohex-1-enyl-pyridin-3-yl)-2-(6-methyl-pyridin-2-yl)-7H-pyrrolo[2,3-d]pyrimidine] the value was 198 nM.
For `CNCc1ccc(-c2cncc(-c3cc(-c4cccc(C)n4)nc4[nH]ccc34)c2)cc1` [Example 73, Methyl-(4-{5-[6-(6-methyl-pyridin-2-yl)-1H-pyrrolo[2,3-b]pyridin-4-yl]-pyridin-3-yl}-benzyl)-amine] the value was 17 nM; for `Cc1cccc(-c2nc(-c3cncc(C4=CCCC4)c3)c3cc[nH]c3n2)n1` [Example 74, 4-(5-Cyclopent-1-enyl-pyridin-3-yl)-2-(6-methyl-pyridin-2-yl)-7H-pyrrolo[2,3-d]pyrimidine], 163 nM.
Take `Cc1cccc(-c2nc(-c3cncc(-c4cncc(CN(C)C)c4)c3)c3cc[nH]c3n2)n1` [Example 75]: it took 310 nM to reach half-maximal inhibition (IC50).
For `CNCc1cncc(-c2cncc(-c3nc(-c4cccc(C)n4)nc4[nH]ccc34)c2)c1` [Example 76] the value was 117 nM; for `Cc1cccc(-c2nc(-c3cncc(-c4ccc(C(C)(C)N)cc4)c3)c3cc[nH]c3n2)n1` [Example 77, 1-Methyl-1-(4-{5-[2-(6-methyl-pyridin-2-yl)-7H-pyrrolo[2,3-d]pyrimidin-4-yl]-pyridin-3-yl}-phenyl)-ethylamine], 9 nM; for `Cc1cccc(-c2nc(-c3cncc(-c4cncc(CO)c4)c3)c3cc[nH]c3n2)n1` [Example 78, {5′-[2-(6-Methyl-pyridin-2-yl)-7H-pyrrolo[2,3-d]pyrimidin-4-yl]-[3,3′]bipyridinyl-5-yl}-methanol], 49 nM.
For `Cc1cccc(-c2nc(-c3cncc(CO)c3)c3cc[nH]c3n2)n1` [Example 79, {5-[2-(6-Methyl-pyridin-2-yl)-7H-pyrrolo[2,3-d]pyrimidin-4-yl]-pyridin-3-yl}-methanol] the value was 1230 nM.
In the case of `Cc1cccc(-c2nc(-c3cncc(O)c3)c3cc[nH]c3n2)n1` [Example 80, 5-[2-(6-Methyl-pyridin-2-yl)-7H-pyrrolo[2,3-d]pyrimidin-4-yl]-pyridin-3-ol], half-maximal inhibition (IC50) required 239 nM.
Regarding `Cc1cccc(-c2nc(-c3cncc(-c4ccc(C(C)N)cc4)c3)c3cc[nH]c3n2)n1` (stereo not shown) [Example 81, 1-(4-{5-[2-(6-Methyl-pyridin-2-yl)-7H-pyrrolo[2,3-d]pyrimidin-4-yl]-pyridin-3-yl}-phenyl)-ethylamine], the concentration for half-maximal inhibition (IC50) came out at 17 nM. This IC50 lies about 14-fold lower than the previous one.
For `Cc1cccc(-c2cc(-c3cncc(-c4ccc(CO)cc4)c3)c3cc[nH]c3n2)n1` [Example 82, (4-{5-[6-(6-Methyl-pyridin-2-yl)-1H-pyrrolo[2,3-b]pyridin-4-yl]-pyridin-3-yl}-phenyl)-methanol] the value was 12 nM; for `Cc1cccc(-c2nc(-c3cncc(-c4nnco4)c3)c3cc[nH]c3n2)n1` [Example 83, 2-(6-Methyl-pyridin-2-yl)-4-(5-[1,3,4]oxadiazol-2-yl-pyridin-3-yl)-7H-pyrrolo[2,3-d]pyrimidine], 557 nM; for `Cc1cccc(-c2cc(-c3cncc(-c4ccc(CN)cc4)c3)c3cc[nH]c3n2)n1` [Example 84, 4-{5-[6-(6-Methyl-pyridin-2-yl)-1H-pyrrolo[2,3-b]pyridin-4-yl]-pyridin-3-yl}-benzylamine], 36 nM.

Usually IC50 stands for the midpoint of a concentration-inhibition curve.
